Source: patent publication US9169254B2, “Spiroimidazolone derivative” (Chugai Seiyaku Kabushiki Kaisha, priority 2009, dated 2015)
Counter-ions that a name gives are not always drawn.

These compounds were tested against T1, human PTH1 receptor (Homo sapiens, UniProt Q03431) (assay: In vitro cAMP signal activity in HKRK-B7 cells (LLC-PK1 cells overexpressing the human PTH1 receptor)). Details: HKRK-B7 cells; compound at 1×10^−3 M; cAMP produced as percentage of that produced by hPTH(1-34) at 100 nM.
T1 sequence (Q03431 27-593): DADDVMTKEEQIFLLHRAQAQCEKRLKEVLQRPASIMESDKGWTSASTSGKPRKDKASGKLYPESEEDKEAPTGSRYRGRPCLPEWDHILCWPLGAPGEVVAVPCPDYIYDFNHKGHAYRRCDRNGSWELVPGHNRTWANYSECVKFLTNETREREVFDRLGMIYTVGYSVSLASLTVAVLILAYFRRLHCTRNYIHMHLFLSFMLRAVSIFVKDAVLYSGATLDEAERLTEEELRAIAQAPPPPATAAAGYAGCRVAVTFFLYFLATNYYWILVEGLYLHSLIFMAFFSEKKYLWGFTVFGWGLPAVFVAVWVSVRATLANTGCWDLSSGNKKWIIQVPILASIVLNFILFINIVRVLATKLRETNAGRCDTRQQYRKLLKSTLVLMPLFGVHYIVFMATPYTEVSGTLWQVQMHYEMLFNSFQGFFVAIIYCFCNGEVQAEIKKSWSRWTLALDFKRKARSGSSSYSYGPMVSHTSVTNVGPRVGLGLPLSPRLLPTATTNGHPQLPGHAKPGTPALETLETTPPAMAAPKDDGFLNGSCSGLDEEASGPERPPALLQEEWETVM
Assay type: cell-based

Row | Structure (SMILES) | cAMP production activity (%)
1 | CC(=O)Nc1cc(C)c(/C=C/S(=O)(=O)N2CCC3(CC2)N=C(c2cccc(OC(F)(F)F)c2)NC3=O)c(C)c1 [Compound 238, N-(3,5-dimethyl-4-{(E)-2-[4-oxo-2-(3-trifluoromethoxy-phenyl)-1,3,8-triaza-spiro[4.5]dec-1-ene-8-sulfonyl]-vinyl}-phenyl)-acetamide] | 90
2 | Cc1cc(N(CC#N)C(N)=O)ccc1/C=C/S(=O)(=O)N1CCC2(CC1)N=C(c1cccc(OC(F)(F)F)c1)NC2=O [Compound 729, 1-Cyanomethyl-1-(3-methyl-4-{(E)-2-[4-oxo-2-(3-trifluoromethoxy-phenyl)-1,3,8-triaza-spiro[4.5]dec-1-ene-8-sulfonyl]-vinyl}-phenyl)-urea] | 45
3 | CCCCCCCCCC1=NC2(CCN(S(=O)(=O)CCc3ccc(C(=O)N4CCCC4)cc3C)CC2)C(=O)N1 [Compound 977, 8-{2-[2-Methyl-4-(pyrrolidine-1-carbonyl)-phenyl]-ethanesulfonyl}-2-nonyl-1,3,8-triaza-spiro[4.5]dec-1-en-4-one] | 80
4 | CNC(=O)N(C)c1cc(C)c(/C=C/S(=O)(=O)N2CCC3(CC2)N=C(c2cccc(OC(F)(F)F)c2)NC3=O)c(C)c1 [Compound 1014, 1-(3,5-dimethyl-4-{(E)-2-[4-oxo-2-(3-trifluoromethoxy-phenyl)-1,3,8-triaza-spiro[4.5]dec-1-ene-8-sulfonyl]-vinyl}-phenyl)-1,3-dimethyl-urea] | 84
5 | Cc1cc(C(=O)N2CCN(CCN3CCOCC3)CC2)ccc1CCS(=O)(=O)N1CCC2(CC1)N=C(c1cccc(C(F)(F)F)c1)NC2=O [Compound 363, 8-(2-{2-methyl-4-[4-(2-morpholin-4-yl-ethyl)-piperazine-1-carbonyl]-phenyl}-ethanesulfonyl)-2-(3-trifluoromethyl-phenyl)-1,3,8-triaza-spiro[4.5]dec-1-en-4-one] | 67
6 | Cc1ccccc1/C=C/S(=O)(=O)N1CCC2(CC1)N=C(C1CCCCC1)NC2=O [Compound 186, 2-cyclohexyl-8-((E)-2-o-tolyl-ethenesulfonyl)-1,3,8-triaza-spiro[4.5]dec-1-en-4-one] | 51
7 | Cc1cc(OC2CCNCC2)ccc1/C=C/S(=O)(=O)N1CCC2(CC1)N=C(c1cccc(OC(F)(F)F)c1)NC2=O [Compound 1283, 8-{(E)-2-[2-Methyl-4-(piperidin-4-yloxy)-phenyl]-ethenesulfonyl}-2-(3-trifluoromethoxy-phenyl)-1,3,8-triaza-spiro[4.5]dec-1-en-4-one trifluoroacetate] | 18
8 | Cc1cc(C(=O)N2CCC(C)(O)CC2)cc(C)c1/C=C/S(=O)(=O)N1CCC2(CC1)N=C(c1cccc(C(F)(F)C(F)(F)F)c1)NC2=O [Compound 1196, 8-{(E)-2-[4-(4-hydroxy-4-methyl-piperidine-1-carbonyl)-2,6-dimethyl-phenyl]-ethenesulfonyl}-2-(3-pentafluoroethyl-phenyl)-1,3,8-triaza-spiro[4.5]dec-1-en-4-one] | 76
9 | CCOc1c(N(C)c2cc(C)c(CCS(=O)(=O)N3CCC4(CC3)N=C([C@H]3CC[C@H](C)CC3)NC4=O)c(C)c2)c(=O)c1=O [Compound 1367, 3-[(3,5-Dimethyl-4-{2-[2-(4-methyl-cyclohexyl)-4-oxo-1,3,8-triaza-spiro[4.5]dec-1-ene-8-sulfonyl]-ethyl}-phenyl)-methyl-amino]-4-ethoxy-cyclobut-3-ene-1,2-dione] | 58
10 | Cc1cc(N(C)C(=O)C(F)(F)F)cc(C)c1CCS(=O)(=O)N1CCC2(CC1)N=C(C1CC(C)(C)CC(C)(C)C1)NC2=O [Compound 933, N-(3,5-dimethyl-4-{2-[4-oxo-2-(3,3,5,5-tetramethyl-cyclohexyl)-1,3,8-triaza-spiro[4.5]dec-1-ene-8-sulfonyl]-ethyl}-phenyl)-2,2,2-trifluoro-N-methyl-acetamide] | 60
11 | CC(=O)Nc1ccc(CCS(=O)(=O)N2CCC3(CC2)N=C(C2CCC(OCCC(F)(F)F)CC2)NC3=O)c(C)c1 (stereo not shown) [Compound 921, N-[3-methyl-4-(2-{4-oxo-2-[4-(3,3,3-trifluoro-propoxy)-cyclohexyl]-1,3,8-triaza-spiro[4.5]dec-1-ene-8-sulfonyl}-ethyl)-phenyl]-acetamide] | 59
12 | CC(C)(C)OC(=O)NCc1ccc(/C=C/S(=O)(=O)N2CCC3(CC2)N=C(C2CCCCC2)NC3=O)c(C(F)(F)F)c1 [Compound 205, {4-[(E)-2-(2-cyclohexyl-4-oxo-1,3,8-triaza-spiro[4.5]dec-1-ene-8-sulfonyl)-vinyl]-3-trifluoromethyl-benzyl}-carbamic acid tert-butyl ester] | 47
13 | CC(=O)N(CCOCCF)c1ccc(CCS(=O)(=O)N2CCC3(CC2)N=C(C2CCC(CCC(F)(F)F)CC2)NC3=O)c(C)c1 (stereo not shown) [Compound 757, N-[2-(2-fluoro-ethoxy)-ethyl]-N-[3-methyl-4-(2-{4-oxo-2-[4-(3,3,3-trifluoro-propyl)-cyclohexyl]-1,3,8-triaza-spiro[4.5]dec-1-ene-8-sulfonyl}-ethyl)-phenyl]-acetamide] | 79
14 | C=CCCCN(C)C(=O)c1ccc(CCS(=O)(=O)N2CCC3(CC2)N=C(c2cc(OCCC=C)cc(C(F)(F)F)c2)NC3=O)c(C)c1 [Compound 1405, 4-{2-[2-(3-But-3-enyloxy-5-trifluoromethyl-phenyl)-4-oxo-1,3,8-triaza-spiro[4.5]dec-1-ene-8-sulfonyl]-ethyl}-3,N-dimethyl-N-pent-4-enyl-benzamide] | 51
15 | CCCSCCCCCC1=NC2(CCN([S@TB17](=O)(=O)/C=C/c3c(C)cc(N(C)C(N)=O)cc3C)CC2)C(=O)N1 [Compound 1122, 1-(3,5-dimethyl-4-{(E)-2-[4-oxo-2-(5-propylsulfanyl-pentyl)-1,3,8-triaza-spiro[4.5]dec-1-ene-8-sulfonyl]-vinyl}-phenyl)-1-methyl-urea] | 150
16 | O=C1NC(C2CCC(C(F)(F)F)CC2)=NC12CCN(S(=O)(=O)CCc1cccc3ccccc13)CC2 (stereo not shown) [Compound 37, 8-(2-naphthalen-1-yl-ethanesulfonyl)-2-(4-trifluoromethyl-cyclohexyl)-1,3,8-triaza-spiro[4.5]dec-1-en-4-one] | 54
17 | O=C1NC(C2CCCCC2)=NC12CCN(S(=O)(=O)CCc1cccc3c1ccn3CCCCO)CC2 [Compound 651, 2-cyclohexyl-8-{2-[1-(4-hydroxy-butyl)-1H-indol-4-yl]-ethanesulfonyl}-1,3,8-triaza-spiro[4.5]dec-1-en-4-one] | 54
18 | CC(C)=C1CCC(C2=NC3(CCN(S(=O)(=O)CCc4c(C)cc(N(C)C(N)=O)cc4C)CC3)C(=O)N2)CC1 (stereo not shown) [Compound 1310, 1-(4-{2-[2-(4-isopropylidene-cyclohexyl)-4-oxo-1,3,8-triaza-spiro[4.5]dec-1-ene-8-sulfonyl]-ethyl}-3,5-dimethyl-phenyl)-1-methyl-urea] | 104
19 | Cc1cc(C(=O)N(C)C)ccc1CCS(=O)(=O)N1CCC2(CC1)N=C(C1CCC(F)(F)CC1)NC2=O [Compound 890, 4-{2-[2-(4,4-Difluoro-cyclohexyl)-4-oxo-1,3,8-triaza-spiro[4.5]dec-1-ene-8-sulfonyl]-ethyl}-3,N,N-trimethyl-benzamide] | 61
20 | Cc1cc(C(=O)N2CCOC2=O)cc(C)c1/C=C/S(=O)(=O)N1CCC2(CC1)N=C(C1CCCCC1)NC2=O [Compound 1007, 2-Cyclohexyl-8-{(E)-2-[2,6-dimethyl-4-(2-oxo-oxazolidine-3-carbonyl)-phenyl]-ethenesulfonyl}-1,3,8-triaza-spiro[4.5]dec-1-en-4-one] | 20
21 | CO[C@H]1CC[C@H](C2=NC3(CCN(S(=O)(=O)c4cccc(Cl)c4)CC3)C(=O)N2)CC1 [Compound 25, 8-(3-chloro-benzenesulfonyl)-2-(4-methoxy-cyclohexyl)-1,3,8-triaza-spiro[4.5]dec-1-en-4-one] | 18
22 | Cc1cc(C(=O)N(C)C)ccc1CCS(=O)(=O)N1CCC2(CC1)N=C(C1(C(F)(F)F)CC1)NC2=O [Compound 136, 3,N,N-trimethyl-4-{2-[4-oxo-2-(1-trifluoromethyl-cyclopropyl)-1,3,8-triaza-spiro[4.5]dec-1-ene-8-sulfonyl]-ethyl}-benzamide] | 72
23 | Cc1cc(OC[C@H](O)CO)cc(C)c1CCS(=O)(=O)N1CCC2(CC1)N=C(c1ccc3c(c1)OC(F)(F)O3)NC2=O [Compound 1330, 2-(2,2-difluoro-benzo[1,3]dioxol-5-yl)-8-{2-[4-((R)-2,3-dihydroxy-propoxy)-2,6-dimethyl-phenyl]-ethanesulfonyl}-1,3,8-triaza-spiro[4.5]dec-1-en-4-one] | 9.2
24 | Cc1cc(C(N)=O)cc(C)c1/C=C/S(=O)(=O)N1CCC2(CC1)N=C(c1cccc(OC(F)(F)F)c1)NC2=O [Compound 962, 3,5-dimethyl-4-{(E)-2-[4-oxo-2-(3-trifluoromethoxy-phenyl)-1,3,8-triaza-spiro[4.5]dec-1-ene-8-sulfonyl]-vinyl}-benzamide] | 86
25 | CC(=O)Nc1ccc(/C=C/S(=O)(=O)N2CCC3(CC2)N=C(c2cccc(C(F)(F)F)c2)NC3=O)c(C)c1 [Compound 215, N-(3-Methyl-4-{(E)-2-[4-oxo-2-(3-trifluoromethyl-phenyl)-1,3,8-triaza-spiro[4.5]dec-1-ene-8-sulfonyl]-vinyl}-phenyl)-acetamide] | 81
